From BindingDB's records for patent US20240368161 (Cgenetech (Suzhou, China), 2024) come the findings set out here.

The target in assay [1] is T1, Tyrosine-protein kinase JAK3 (Homo sapiens, UniProt P52333).
T1 sequence (P52333 whole entry): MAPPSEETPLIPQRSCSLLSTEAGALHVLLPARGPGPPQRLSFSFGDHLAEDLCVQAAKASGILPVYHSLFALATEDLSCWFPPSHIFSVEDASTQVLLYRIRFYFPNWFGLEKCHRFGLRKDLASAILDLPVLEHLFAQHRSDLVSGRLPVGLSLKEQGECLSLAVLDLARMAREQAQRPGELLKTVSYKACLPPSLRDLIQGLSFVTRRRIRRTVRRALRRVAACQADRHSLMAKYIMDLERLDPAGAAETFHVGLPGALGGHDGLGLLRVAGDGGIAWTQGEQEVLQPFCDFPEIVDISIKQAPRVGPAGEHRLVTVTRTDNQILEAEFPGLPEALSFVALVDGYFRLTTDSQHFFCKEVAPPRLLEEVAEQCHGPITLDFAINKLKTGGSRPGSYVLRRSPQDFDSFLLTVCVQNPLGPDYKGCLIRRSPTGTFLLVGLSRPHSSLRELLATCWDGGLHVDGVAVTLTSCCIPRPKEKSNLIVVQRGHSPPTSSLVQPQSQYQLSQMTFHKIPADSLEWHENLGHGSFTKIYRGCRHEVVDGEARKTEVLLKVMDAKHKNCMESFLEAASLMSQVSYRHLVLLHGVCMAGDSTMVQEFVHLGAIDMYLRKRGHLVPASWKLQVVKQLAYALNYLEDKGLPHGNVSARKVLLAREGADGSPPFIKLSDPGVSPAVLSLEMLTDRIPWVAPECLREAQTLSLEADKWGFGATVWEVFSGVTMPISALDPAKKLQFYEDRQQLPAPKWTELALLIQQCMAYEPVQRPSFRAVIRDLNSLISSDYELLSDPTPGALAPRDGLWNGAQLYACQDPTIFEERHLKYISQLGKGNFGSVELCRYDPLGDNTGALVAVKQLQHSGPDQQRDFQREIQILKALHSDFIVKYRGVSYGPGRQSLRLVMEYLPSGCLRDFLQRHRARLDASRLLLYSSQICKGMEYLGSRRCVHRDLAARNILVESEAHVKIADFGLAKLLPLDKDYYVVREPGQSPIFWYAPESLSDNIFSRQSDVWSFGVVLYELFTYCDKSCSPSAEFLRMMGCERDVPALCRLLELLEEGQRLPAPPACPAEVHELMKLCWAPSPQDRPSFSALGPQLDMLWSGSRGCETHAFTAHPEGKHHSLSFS
Briefly: JAK3 Kinase Inhibitory Activity Determination.
Experimental: At the end of incubation, HTRF665/620 signals were read on a multifunctional microplate reader.

Assay [2] addresses Tyrosine-protein kinase JAK2 (Homo sapiens, UniProt O60674). Briefly: JAK2 Kinase Inhibitory Activity Determination.
Assay [3] deals with Tyrosine-protein kinase JAK1 (Homo sapiens, UniProt P23458). Briefly: JAK1 Kinase Inhibitory Activity Determination.
Chain of Tyrosine-protein kinase JAK1 (P23458 whole entry): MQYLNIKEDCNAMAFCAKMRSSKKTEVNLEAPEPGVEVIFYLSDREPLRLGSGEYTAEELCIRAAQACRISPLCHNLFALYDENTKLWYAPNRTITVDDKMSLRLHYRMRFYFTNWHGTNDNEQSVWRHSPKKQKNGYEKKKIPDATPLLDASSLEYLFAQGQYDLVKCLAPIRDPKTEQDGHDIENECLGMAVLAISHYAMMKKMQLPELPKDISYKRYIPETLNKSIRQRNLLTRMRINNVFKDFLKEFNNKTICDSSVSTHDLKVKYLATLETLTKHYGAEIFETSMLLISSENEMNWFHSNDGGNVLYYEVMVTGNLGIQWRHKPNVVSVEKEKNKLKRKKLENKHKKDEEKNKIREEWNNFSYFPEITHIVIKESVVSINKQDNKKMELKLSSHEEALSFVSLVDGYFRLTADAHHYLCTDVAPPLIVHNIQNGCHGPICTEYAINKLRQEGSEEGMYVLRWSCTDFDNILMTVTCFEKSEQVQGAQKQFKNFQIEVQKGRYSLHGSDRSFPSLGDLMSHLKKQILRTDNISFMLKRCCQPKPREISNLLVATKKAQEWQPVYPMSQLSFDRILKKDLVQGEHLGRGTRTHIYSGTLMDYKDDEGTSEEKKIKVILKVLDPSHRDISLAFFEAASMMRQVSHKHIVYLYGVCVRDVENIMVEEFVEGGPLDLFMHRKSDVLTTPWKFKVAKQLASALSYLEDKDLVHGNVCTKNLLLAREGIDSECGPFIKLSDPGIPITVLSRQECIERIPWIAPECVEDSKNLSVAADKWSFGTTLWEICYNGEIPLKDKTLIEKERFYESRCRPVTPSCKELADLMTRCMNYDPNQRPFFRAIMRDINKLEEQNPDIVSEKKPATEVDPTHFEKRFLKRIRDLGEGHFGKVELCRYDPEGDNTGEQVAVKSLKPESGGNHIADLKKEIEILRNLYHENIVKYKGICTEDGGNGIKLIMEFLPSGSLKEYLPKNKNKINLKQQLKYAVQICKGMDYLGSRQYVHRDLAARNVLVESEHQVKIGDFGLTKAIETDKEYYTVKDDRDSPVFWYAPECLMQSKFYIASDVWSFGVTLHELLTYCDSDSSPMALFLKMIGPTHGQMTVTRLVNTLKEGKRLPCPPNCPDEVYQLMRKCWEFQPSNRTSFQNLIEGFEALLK

pIC50: −log10 of the molar value.

Chain of Tyrosine-protein kinase JAK2 (O60674 whole entry): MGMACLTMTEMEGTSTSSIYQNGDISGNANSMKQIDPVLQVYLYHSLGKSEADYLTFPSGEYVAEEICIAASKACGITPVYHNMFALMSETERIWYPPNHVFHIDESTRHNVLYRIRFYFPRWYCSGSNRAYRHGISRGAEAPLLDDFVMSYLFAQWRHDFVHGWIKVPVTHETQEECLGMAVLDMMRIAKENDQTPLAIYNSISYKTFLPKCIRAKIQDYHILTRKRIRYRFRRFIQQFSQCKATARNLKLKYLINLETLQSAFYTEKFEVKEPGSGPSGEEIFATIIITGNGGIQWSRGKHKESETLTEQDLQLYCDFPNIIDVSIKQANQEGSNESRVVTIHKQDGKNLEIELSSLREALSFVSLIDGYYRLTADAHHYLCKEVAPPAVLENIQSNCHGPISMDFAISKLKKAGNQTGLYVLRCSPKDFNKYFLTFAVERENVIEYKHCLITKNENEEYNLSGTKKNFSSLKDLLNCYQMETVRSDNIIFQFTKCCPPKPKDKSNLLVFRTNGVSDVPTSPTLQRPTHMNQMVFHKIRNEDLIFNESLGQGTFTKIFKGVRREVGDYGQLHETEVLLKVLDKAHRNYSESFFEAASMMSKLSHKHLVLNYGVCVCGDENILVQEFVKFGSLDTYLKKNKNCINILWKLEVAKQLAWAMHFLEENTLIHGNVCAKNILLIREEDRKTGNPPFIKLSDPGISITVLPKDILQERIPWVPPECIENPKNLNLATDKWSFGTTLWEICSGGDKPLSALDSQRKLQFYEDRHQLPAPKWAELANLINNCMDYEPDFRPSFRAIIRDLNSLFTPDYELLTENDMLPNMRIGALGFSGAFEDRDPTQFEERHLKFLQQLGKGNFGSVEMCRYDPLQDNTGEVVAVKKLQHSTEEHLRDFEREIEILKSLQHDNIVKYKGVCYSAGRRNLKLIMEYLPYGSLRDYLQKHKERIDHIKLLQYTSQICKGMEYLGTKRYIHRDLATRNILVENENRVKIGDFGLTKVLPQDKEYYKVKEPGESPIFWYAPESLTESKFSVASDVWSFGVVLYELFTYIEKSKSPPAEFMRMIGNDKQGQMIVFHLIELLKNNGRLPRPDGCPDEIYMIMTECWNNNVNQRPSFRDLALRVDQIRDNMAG

A word on the pIC50: it is the IC50 on a negative log10 scale, so that one unit is a factor of ten. The low end stands for a high IC50, the high end for a low IC50. For `CS(=O)(=O)C1CN(Cc2ccc(-c3cccc4nc(NC(=O)C5CC5)cn34)cc2)C1` [US20240368161, Compound 15], the results for the pIC50 in assay [1], in assay [2] and in assay [3] were 5.50, 6.63 and 6.86, respectively.
In the case of `CS(=O)(=O)C1CCN(Cc2ccc(-c3cccc4nc(NC(=O)C5CC5)cn34)cc2)CC1` [US20240368161, Compound 16], the pIC50 was 5.51 in assay [1], 6.90 in assay [2] and 7.13 in assay [3].
In the same order, the values of `O=C(Nc1cn2c(-c3ccc(OC4CCS(=O)(=O)CC4)cc3)cccc2n1)C1CC1` [US20240368161, Compound 17] are 5.84, 7.14 and 6.90.
For `CS(=O)(=O)C1CCN(Cc2ccc(-c3cccc4nc(NC(=O)C5CC5)cn34)c(F)c2)CC1` [US20240368161, Compound 20], in that order: 5.24, 6.75 and 6.58.
In the same order, the values of `CCCS(=O)(=O)C1CCN(Cc2ccc(-c3cccc4nc(NC(=O)C5CC5)cn34)cc2)CC1` [US20240368161, Compound 31] are 5.16, 6.64 and 6.21.
